According to patent US20230285405A1, “Pharmaceuticals for Treating or Preventing Nidoviruses and Picornaviruses” (priority 2020, published 2023):
Read-outs that look alike come from different tables or passages of the source.

How the values were obtained:
OC43 [1] = test: Drug screening: OC43 nucleoprotein staining in infected A549-mRuby cells; type: cell-based, human beta coronavirus OC43; conditions: for activity at 10 µM: Betacoronavirus 1, OC43, 96 h
Method in brief: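 A549 cells expressing H2B-mRuby infected with OC43 at MOI 0.3 for 1 h at 33° C, then drugs added at 10 μM final and incubated 4 days at 33° C. Viral nucleoprotein immunostained and imaged; intensity normalized to cell number and no-drug controls (=100). Hits reduced staining >3 SD in both repeats without toxicity.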

SARS-CoV-2 [2] = test: SARS-CoV-2 plaque titers (progeny production); type: cell-based, SARS-CoV-2 (nCoV/Washington/1/2020); conditions: 10 μM drug for 2 hours, MOI 0.5, supernatant collected 2 days after
Method: For SARS-CoV-2 plaque titers, cell supernatants from the infection described above were serially diluted (10-fold steps were used) and used to infect Vero E6 cells for 1 hour. Inoculum was removed and 1.25% methylcellulose DMEM solution was added to the cells and incubated for 3 days. Plates were fixed in 1:10 formalin for 1 hour, stained with crystal violet for 1 hour and were counted to determine plaque forming units (PFU)/ml.
The effect of several drugs on the production of viable progeny viruses was evaluated. Cells were treated with 10 μM of the drugs for 2 hours, infected at an MOI of 0.5 and the supernatant collected 2 days after for titration (FIG. 2C). Cepharanthine and azelastine completely eliminated SARS-CoV-2 progeny production (>5-logs decrease), while flupenthixol and desloratidine reduced viral titers by about 2-logs. Ultimately, the screen identified 20 safe-in-human drugs that are able to inhibit both OC43 and SARS-CoV-2 infection in vitro.

A549-mRuby cells = test: Drug screening: effect on cell growth (cell number day 4 / day 0); conditions: 10 μM drug; for Growth_1: number of cells at day 4 divided by number of cells at day 0 / toxic_1: repeat #1; for Growth_2: number of cells at day 4 divided by number of cells at day 0 / toxic_2: repeat #2
Method in brief: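 A549 cells carrying an H2B-mRuby reporter were infected with OC43 at MOI 0.3 for 1 h at 33° C, then given drug at 10 μM final. Cell numbers were counted by imaging at day 0 and again at day 4 after 4 days at 33° C, 5% CO2, with the screen run twice.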

OC43 [3] = test: Dose-response analysis of OC43 infection; type: cell-based, human beta coronavirus OC43
Method: Dose-response analysis of OC43 infection was done similarly to the drug screening, except cells were seeded at a concentration of 5,000 cells per well and the media contained 2% BCS instead of 10% BCS. OC43 staining was performed 2 days after infection and analyzed similarly to what was described for the drug screening. A sigmoid fit was used to extract EC50 values using Matlab.

SARS-CoV-2 [4] = test: microbe, parasite or virus in culture; type: cell-based, SARS-CoV-2 (nCoV/Washington/1/2020); conditions: read-out: EC50 SARS2
SARS-CoV-2 3CLpro = target: T1, SARS-CoV-2 3CLpro (Severe acute respiratory syndrome coronavirus 2, UniProt P0DTD1); type: cell-based
T1 construct: the SARS-CoV-2 main protease (also known as 3CLpro, Mpro and nsp5); expressed in transfected cells; host or cells: 293T cells

[5] = 10 μM drug, MOI 0.3, 4 days, OC43 staining normalized to no-drug controls, mean of the two screen repeats, read-out: OC43_mean
[6] = 10 μM drug, MOI 0.3, 4 days, normalized to no-drug controls in the same plate, repeat #1, read-out: OC43_1: % staining of OC43 in screen repeat #1
[7] = 10 μM drug, MOI 0.3, 4 days, normalized to no-drug controls in the same plate, repeat #2, read-out: OC43_2: % staining of OC43 in screen repeat #2

Molecule	hit_1 (OC43 [1]; 10 μM drug, repeat #1)	hit_2 (OC43 [1]; 10 μM drug, repeat #2)	activity at 10 µM (OC43 [1]; [5]) [%]	activity at 10 µM (OC43 [1]; [6]) [%]	activity at 10 µM (OC43 [1]; [7]) [%]	decrease of SARS-CoV-2 viral titers (progeny production) (SARS-CoV-2 [2])	Growth_1: number of cells at day 4 divided by number of cells at day 0 (A549-mRuby cells)	toxic_1 (A549-mRuby cells)	Growth_2: number of cells at day 4 divided by number of cells at day 0 (A549-mRuby cells)	toxic_2 (A549-mRuby cells)	3CLpro activity: percentage of GFP-expressing cells (in words) (SARS-CoV-2 3CLpro)	further results
Clc1ccc2c(c1)CCc1cccnc1C2=C1CCNCC1 [Desloratadine]	1	1	19.3	13.2	25.4	about 2 logs	4.8	0	4.4	0	–	–
Retapamulin	1	1	–	–	–	–	4.3	0	4.1	0	statistically significant decrease	OC43_mean (OC43 [1]): 12.2%; OC43_1: % staining of OC43 in screen repeat #1 (OC43 [1]; 10 μM drug, MOI 0.3, 4 days, normalized to no-drug controls in the same plate, repeat #1): 11.7%; OC43_2: % staining of OC43 in screen repeat #2 (OC43 [1]; 10 μM drug, MOI 0.3, 4 days, normalized to no-drug controls in the same plate, repeat #2): 12.6%; EC50 (OC43 [3]; A549-mRuby cells, staining 2 days after infection, read-out: EC50 OC43): 4.5 µM; EC50 (SARS-CoV-2 [4]): 8 µM
Cl.Cl.OCCN1CCN(CCC=C2c3ccccc3Sc3ccc(C(F)(F)F)cc32)CC1 (mixture of isomers) [Flupenthixol dihydrochloride]	–	–	–	–	–	about 2 logs	2.1	0	3.3	0	–	OC43_1: % staining of OC43 in screen repeat #1 (OC43 [1]): 8.7%; OC43_2: % staining of OC43 in screen repeat #2 (OC43 [1]): 33.3%; hit_1 (OC43 [1]): 1; hit_2 (OC43 [1]): 1; OC43_mean (OC43 [1]; 10 μM drug, MOI 0.3, 4 days, OC43 staining normalized to no-drug controls, mean of the two screen repeats): 21.0%
Cc1nc2c([nH]1)CCN(C(=O)c1ccc(NC(=O)c3ccccc3-c3ccccc3)cc1)c1ccccc1-2.O [Conivaptan HCl]	1	1	5.7	4.5	7	–	4.2	0	4.7	0	statistically significant decrease	EC50 (OC43 [3]; Betacoronavirus 1, OC43, 48 h, read-out: EC50 OC43, A549-mRuby cells, staining 2 days after infection): 4.6 µM; EC50 (SARS-CoV-2 [4]; Severe acute respiratory syndrome coronavirus 2): 4 µM
